{"source": "patent US20210260057A1", "about": "“COMPOSITIONS AND METHODS TARGETING GLUTAMINE AND ITS METABOLISM FOR DIAGNOSING AND TREATING CANCER AND THERAPY-ASSOCIATED SIDE EFFECTS” (CEDARS-SINAI MEDICAL CENTER, priority 2018, published 2021)", "key": {"RASAL3 promoter": {"tested_on": "RASAL3 promoter", "experiment": "Methylation specific PCR of RASAL3 exon 2 in CAF", "format": "cell-based, human", "conditions": "CAF after treatment", "protocol": "(FIG. 13A) Quantitative rtPCR analysis of RASAL3 in NAF and CAF was performed following 5 day treatment with bicalutamide (Bic, 10^−5 M), enzalutamide (Enza, 10^−5 M), R1881 (10^−9 M), or 5-Azacytidine (5-Aza, […]). RASAL3 expression was normalized GAPDH expression. Data represent the mean±SEM. *P<0.05, ***P<0.001, and ****P<0.0001, by two-way ANOVA followed by multiple comparison. Results are the average of at least three independent experiments. (FIG. 13B) MS-PCR of the RASAL3 exon 2 methylation status in CAF after treatment with enzalutamide, R1881, 5-Azacytidine and bicalutamide was performed. The PCR products in the lanes marked “U” indicate unmethylated templates for RASAL3 gene, whereas the products in the lanes marked “M” indicate methylated templates. Data are representative of three independent experiments."}, "RASAL3 exon 2": {"tested_on": "RASAL3 exon 2", "experiment": "Bisulfite sequencing of RASAL3 exon 2 in CAF", "format": "cell-based, human", "conditions": "CAF treated with R1881 for 5 days", "protocol": "Bisulfite Sequencing. Bisulfite sequencing was performed as described previously (Haldar S, Dru C, Mishra R, Tripathi M, Duong F, Angara B, Fernandez A, Arditi M, and Bhowmick N A. Histone deacetylase inhibitors mediate DNA damage repair in ameliorating hemorrhagic cystitis. Sci Rep. 2016; 6(39257). Briefly, genomic DNA was extracted from the NAF and CAF samples and 200 ng of DNA was bisulfite converted by using the EZ DNA Methylation-Gold Kit (Zymo Research, Irvine, Calif.) according to the manufacturer's protocol. Three overlapping primers were used for amplification of Exon 2 region of RASAL3 by ZymoTaq DNA polymerase (Zymo Research) and subsequently cloned into the pCR2.1-TOPO vector (Invitrogen by Life Technologies, Carlsbad, Calif.). The primer sequences used to amplify the three regions were designed by using the Meth-Primer program (www.urogene.org/methprimer/) and are listed in Table 4. Five clones from each sample were sequenced by using Sanger's method."}, "RASAL3 mRNA in CAF": {"tested_on": "RASAL3 mRNA in CAF", "experiment": "RASAL3 mRNA expression (rtPCR) in CAF", "format": "cell-based, human", "conditions": "5-day treatment; Bic 10^−5 M, Enza 10^−5 M, R1881 10^−9 M, 5-Aza 5 mmol/L", "protocol": "(§1) RNA expression level. All real-time PCR assays were carried out using three technical replicates and three independent cDNA syntheses on a 7500 Real-Time PCR System (Applied Biosystems). Data were normalized using an internal control gene, either GAPDH or β-actin. Relative quantification of expression levels (RQ) was calculated using the ^2-ΔΔCt method."}, "RASAL3 mRNA in NAF": {"tested_on": "RASAL3 mRNA in NAF", "experiment": "RASAL3 mRNA expression (rtPCR) in NAF", "format": "cell-based, human", "conditions": "5-day treatment; Bic 10^−5 M, Enza 10^−5 M, R1881 10^−9 M", "protocol": "as §1"}, "[1]": {"tested_on": "prostate cancer (serum PSA)", "experiment": "PSA response of PCa patients on androgen targeted therapy", "format": "in vivo, human", "design": "PSA on treatment: unit not given beside the values", "excerpt": "Plasma glutamine level may be prognostic for ADT sensitivity. Considering the striking finding that glutamine can induce ADT resistance, we tested if glutamine concentrations can be associated with ADT sensitivity in prostate cancer patients. We measured blood plasma glutamine concentrations in 28 PCa patients that received ADT (Table 1). Of note, the specific androgen signaling-axis interventions in the patient pool included, androgen receptor antagonists: bicalutamide, enzalutamide, and apalutamide, as well as androgen synthesis inhibitors: leuprolide, goserelin, triptorelin, and abiraterone."}, "[2]": {"tested_on": "human prostate cancer cells (CWR22Rv1)", "experiment": "Gene expression in prostate cancer cells (FIG. 15A-D)", "format": "cell-based", "conditions": "for Bone morphogenic protein (BMP) expression: CWR22Rv1 (FIG. 15A); for TET2 expression: FIG. 15C, 15D"}, "[3]": {"tested_on": "prostate cancer epithelial cells", "experiment": "ALDH (stem marker) in prostate cancer epithelial cells", "format": "cell-based", "conditions": "prostate cancer epithelial cells (FIG. 17A, 17B)"}, "prostatic fibroblasts": {"tested_on": "prostatic fibroblasts", "experiment": "Glutamine in conditioned media of prostatic fibroblasts", "format": "cell-based", "conditions": "FIG. 17C", "protocol": "(§2) Measurements of glutamine. Glutamine was measured in blood plasma and conditioned media by using glutamine detection kit (Abcam) following manufacturer protocol. Deproteinization step was performed in plasma samples prior to glutamine detection. The absorbance was measured at 450 nm using a Bio-Rad Benchmark plus microplate spectrophotometer (Bio-Rad Laboratories)."}, "bone marrow fibroblasts": {"tested_on": "bone marrow fibroblasts", "experiment": "Glutamine expression by bone marrow fibroblasts", "format": "cell-based", "conditions": "FIG. 15E, FIG. 17D", "protocol": "as §2"}, "[4]": {"tested_on": "CWR22Rv1 and CAF tissue recombinants", "experiment": "Castrate resistant sub-renal capsule xenograft (castration + enzalutamide)", "conditions": "castrated mice treated with enzalutamide alone", "method": "Tissue recombination mouse models. Cell recombinants were prepared by mixing 2×10^5 epithelial (CWR22Rv1) cells with 6×10^5 CAFs or stromal cells expressing KRAS^V12 per site in collagen as described before (Banerj ee J, Mishra R, Li X, Jackson R S, 2nd, Sharma A, and Bhowmick N A. A reciprocal role of prostate cancer on stromal DNA damage. Oncogene. 2014; 33(41):4924-31). The mice were either left intact or castrated 1 week after grafting. […] Castrated mice were treated with enzalutamide (5 mg/kg) either alone or in combination with L-glutamic acid Υ-(p-nitroanilide) hydrochloride (GPNA; 10 mg/kg; Sigma-Aldrich) for three weeks. The tumor volumes were measured using digital calipers and calculated using the following formula: length (mm)×width (mm)×width (mm)×0.52. When the mice were sacrificed and tumors were excised and photographed. Formalin-fixed, paraffin-embedded (FFPE) xenograft tumor tissue was sectioned and stained with hematoxylin and eosin (H&E) and staining for chromogranin A, TUNEL, phosphorylated-hi stone H3 and phosphorylated-mTOR."}, "CWR22Rv1 [5]": {"tested_on": "CWR22Rv1", "experiment": "Glutamine transporter gene expression, CWR22Rv1", "format": "cell-based, human", "conditions": "CWR22Rv1, glutamine 2 mM", "protocol": "as §1"}, "CWR22Rv1 [6]": {"tested_on": "CWR22Rv1", "experiment": "qPCR of neuroendocrine marker genes, CWR22Rv1", "format": "cell-based, human", "conditions": "CWR22Rv1, L-glutamine alone vs vehicle; F-test P<0.0001", "protocol": "as §1"}, "C4-2B cells": {"tested_on": "C4-2B cells", "experiment": "qPCR of neuroendocrine marker genes, C4-2B", "format": "cell-based, human", "conditions": "L-glutamine 2 mM, P<0.0001", "protocol": "as §1"}, "C4-2B": {"tested_on": "C4-2B", "experiment": "Glutamine transporter and glutaminase gene expression, C4-2B", "format": "cell-based, human", "conditions": "glutamine 2 mM", "protocol": "as §1"}, "CWR22Rv1 [7]": {"tested_on": "CWR22Rv1", "experiment": "CWR22Rv1 proliferation by cell counting in conditioned media", "format": "cell-based, human", "conditions": "NAF-CM supplemented with 0.4 mM glutamine, 72 hrs; compared to CAF-CM", "protocol": "(FIG. 3A) Relative mRNA expression levels of CAF-marker genes in WT and Ras^V12 mouse fibroblast determined by quantitative rtPCR and analyzed using 2-way ANOVA (n≤3). (FIG. 3B) EpCAM-positive cancer epithelial was quantitated by FACS of 3D co-cultures of human epithelial (CWR22Rv1) cells and WT or Ras^V12 mouse fibroblasts. Statistical analysis was performed using two-tailed student's t test (n≤3). (FIG. 3C) ATP was measured in CWR22Rv1 after incubation with conditioned media human NAF or CAF or mouse WT or Ras^V12 fibroblast or oligomycin in glutamine free media (n≤3). Statistical analysis was performed using 1-way ANOVA with multiple comparisons. (FIG. 3D) The diagram represents the TCA cycle in CWR22Rv1 cells treated with NAF- or CAF-conditioned media for 72 hours prior to metabolome analysis (n≤3). (FIG. 3E) The metabolome analysis further indicated differential flux to aspartate, oxidized GSH, and GSH-reduced in CWR22Rv1 cells incubated with NAF- or CAF-conditioned media. (FIG. 3F) Glutamine concentrations were measured in the conditioned media from indicated mouse fibroblasts cultured for 72 hours. (FIG. 3D-FIG. 3F) Statistical analysis was performed using two-tailed student's t test (n≤3). (FIG. 3G) CWR22Rv1 proliferation was measured by cell counting following incubation with NAF and CAF conditioned media for 72 hrs in glutamine free media. […]"}}, "note": "Where “and” joins values, the source holds several entries; their conditions need not be identical. Identical values can stand only once."}
{"smiles": "C[C@]1(O)CC[C@H]2[C@@H]3CCC4=CC(=O)CCC4=C3C=C[C@@]21C", "note": "[R1881]", "values": [{"measurement": "methylation of the RASAL3 promoter (methylation specific PCR)", "setting": "RASAL3 promoter", "value": "hypomethylation"}, {"measurement": "prevention of CpG methylation of RASAL3 exon 2, over vehicle treated CAF", "setting": "RASAL3 exon 2", "value": 2.6, "unit": "fold"}, {"measurement": "RASAL3 mRNA expression in CAF", "setting": "RASAL3 mRNA in CAF", "value": "significantly elevated"}, {"measurement": "RASAL3 mRNA expression in NAF", "setting": "RASAL3 mRNA in NAF", "value": "no effect"}]}
{"smiles": "CNC(=O)c1ccc(N2C(=S)N(c3ccc(C#N)c(C(F)(F)F)c3)C(=O)C2(C)C)cc1F", "note": "[enzalutamide]", "values": [{"measurement": "methylation of the RASAL3 promoter (methylation specific PCR)", "setting": "RASAL3 promoter", "value": "hypermethylation"}, {"measurement": "RASAL3 mRNA expression in CAF", "setting": "RASAL3 mRNA in CAF", "value": "little effect"}, {"measurement": "RASAL3 mRNA expression in NAF", "setting": "RASAL3 mRNA in NAF", "value": "downregulated"}, {"measurement": "PSA on treatment", "setting": "[1]; individual PCa patient on the listed Rx", "value": "0.1 and 344.3 and <0.1 and 116.7"}, {"measurement": "Outcome", "setting": "[1]; individual PCa patient, responsiveness to ADT based on serum PSA", "value": "Responsive (2×) and Non- (2×)"}, {"measurement": "Bone morphogenic protein (BMP) expression", "setting": "[2]", "value": "upregulated"}, {"measurement": "TET2 expression", "setting": "[2]", "value": "induces"}, {"measurement": "ALDH (stem marker)", "setting": "[3]", "value": "upregulates"}, {"measurement": "glutamine expression in the conditioned media of prostatic fibroblasts", "setting": "prostatic fibroblasts", "value": "promotes"}, {"measurement": "glutamine expression in bone marrow fibroblasts", "setting": "bone marrow fibroblasts", "value": "promotes"}, {"measurement": "tumor growth under ADT", "setting": "[4]", "value": "expanded despite ADT"}]}
{"smiles": "NC(=O)CC[C@H](N)C(=O)O", "note": "[glutamine, L-glutamine]", "values": [{"measurement": "SLC38A1 transporter expression", "setting": "CWR22Rv1 [5]", "value": "did not seem to be regulated"}, {"measurement": "expression of glutamine importers SLC1A5 and SCL38A2", "setting": "CWR22Rv1 [5]; time dependent", "value": "consistently increased"}, {"measurement": "expression of neuroendocrine gene panel", "setting": "CWR22Rv1 [6]", "value": "upregulated"}, {"measurement": "neuroendocrine differentiation (marker gene expression)", "setting": "C4-2B cells", "value": "induce neuroendocrine differentiation"}, {"measurement": "SLC38A1 transporter expression", "setting": "C4-2B", "value": "did not seem to be regulated"}, {"measurement": "expression of glutamine importers SLC1A5 and SCL38A2", "setting": "C4-2B; time dependent", "value": "consistently increased"}, {"measurement": "GLS and GLS2 mRNA expression", "setting": "C4-2B; within 6 hours of treatment", "value": "promote"}, {"measurement": "Bone morphogenic protein (BMP) expression", "setting": "[2]", "value": "upregulated"}, {"measurement": "TET2 expression", "setting": "[2]", "value": "upregulates"}, {"measurement": "osteopotegrin (OPG) and FoxMl expression", "setting": "[2]; increasing doses of Gln (FIG. 15B)", "value": "upregulates"}, {"measurement": "ALDH (stem marker)", "setting": "[3]", "value": "upregulates"}, {"measurement": "CWR22Rv1 proliferation", "setting": "CWR22Rv1 [7]", "value": "restored CWR22Rv1 proliferation"}]}
